One assay has as its target GLP-1R (Homo sapiens, UniProt P43220). The assay can be described thus: HitHunter cAMP assay (GLP-1R). Type of assay: cell-based. The following applies: cAMP; for Emax: read-out: (Emax) GLP-1R. The gist of the method: (§1)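 Agonist stimulation lasts 30 min at room temperature on 10,000 cells per well, with phosphodiesterase blocked by 625 μM IBMX. Accumulated cAMP is quantified by competitive antibody luminescence after overnight development.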
(Cyclic AMP is a second messenger, typically raised through Gs and lowered through Gi signalling.)

For a further assay, the target named is T1, GIP-R (Homo sapiens, UniProt P48546).
T1 sequence (P48546 22-466): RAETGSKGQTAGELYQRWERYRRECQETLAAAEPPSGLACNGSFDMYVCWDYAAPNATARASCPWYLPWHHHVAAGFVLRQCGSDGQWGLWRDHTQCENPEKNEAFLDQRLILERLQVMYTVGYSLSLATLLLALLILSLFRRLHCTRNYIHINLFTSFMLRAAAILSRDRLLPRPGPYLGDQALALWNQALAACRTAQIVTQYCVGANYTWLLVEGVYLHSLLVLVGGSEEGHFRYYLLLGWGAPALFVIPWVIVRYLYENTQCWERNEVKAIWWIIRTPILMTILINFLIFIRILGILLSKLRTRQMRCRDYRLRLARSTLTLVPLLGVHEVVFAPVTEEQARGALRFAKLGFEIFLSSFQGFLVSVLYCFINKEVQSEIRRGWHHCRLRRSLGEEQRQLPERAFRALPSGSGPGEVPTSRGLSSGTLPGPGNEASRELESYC
The assay can be described thus: HitHunter cAMP assay (GIP-R). The following applies: cAMP; for Emax: read-out: (Emax) GIP-R. Type of assay: cell-based. The gist of the method: as §1

This is an account of results in patent US20260176320A1, “MODULATORS OF G-PROTEIN COUPLED RECEPTORS” (priority 2018, published 2026).

Read-outs that look alike come from different tables or passages of the source. Bounds are passed on as bounds.

GLP-1R, sequence (P43220 24-463): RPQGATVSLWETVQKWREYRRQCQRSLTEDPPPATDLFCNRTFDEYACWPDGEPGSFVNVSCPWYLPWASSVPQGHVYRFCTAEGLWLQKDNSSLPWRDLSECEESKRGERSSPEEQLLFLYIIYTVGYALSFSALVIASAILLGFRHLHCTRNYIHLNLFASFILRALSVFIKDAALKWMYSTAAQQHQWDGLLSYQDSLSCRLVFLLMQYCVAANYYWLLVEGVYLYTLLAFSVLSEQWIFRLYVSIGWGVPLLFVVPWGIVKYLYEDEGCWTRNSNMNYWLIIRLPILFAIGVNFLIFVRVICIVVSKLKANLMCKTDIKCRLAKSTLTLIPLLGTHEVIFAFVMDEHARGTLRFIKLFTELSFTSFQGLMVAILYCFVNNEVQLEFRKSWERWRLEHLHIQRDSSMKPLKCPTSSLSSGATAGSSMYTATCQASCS

As for `CCCCCCCCCCCCCCCC(=O)N[C@@H](CCC(=O)NCCCC[C@H](NC(=O)[C@H](CO)NC(=O)[C@@H]1CCCN1C(=O)[C@@H]1CCCN1C(=O)[C@@H]1CCCN1C(=O)[C@H](C)NC(=O)CNC(=O)[C@H](CO)NC(=O)[C@H](CO)NC(=O)[C@@H]1CCCN1C(=O)CNC(=O)CNC(=O)[C@H](C)NC(=O)[C@H](CC(C)C)NC(=O)[C@H](CC(C)C)NC(=O)[C@H](Cc1c[nH]c2ccccc12)NC(=O)[C@H](CC(N)=O)NC(=O)[C@@H](NC(=O)[C@H](Cc1ccccc1)NC(=O)[C@H](CCC(=O)O)NC(=O)C(C)(C)NC(=O)[C@H](C)NC(=O)[C@H](C)NC(=O)[C@H](CCC(N)=O)NC(=O)[C@H](CCCCN)NC(=O)[C@H](CC(=O)O)NC(=O)[C@H](CC(C)C)NC(=O)[C@H](Cc1ccc(O)cc1)NC(=O)[C@@H](NC(=O)[C@H](CO)NC(=O)[C@H](Cc1ccc(O)cc1)NC(=O)[C@H](CC(=O)O)NC(=O)[C@H](CO)NC(=O)[C@@H](NC(=O)[C@H](Cc1ccccc1)NC(=O)[C@@H](NC(=O)CNC(=O)[C@H](CCC(=O)O)NC(=O)CSCC(=O)NCCN1C(=O)[C@H](C)C[C@H](C)C1=O)[C@@H](C)O)[C@@H](C)O)[C@@H](C)CC)C(C)C)C(N)=O)C(=O)O` [Compound 88], the EC50 on GLP-1R (EC50 GLP-1R/nM, Table 3) was 1 to 10 nM; on GLP-1R (EC50 GLP-1R/nM, Table 3A) it was 1 to 10 nM; on GIP-R (EC50 GIP-R/nM, Table 3) it was 1 to 10 nM; at GIP-R (EC50 GIP-R/nM, Table 3A), 1 to 10 nM. The Emax on GLP-1R (Table 3) was determined as 108%; at GLP-1R (Table 3A) it was 108%; at GIP-R (Table 3) it was 102%; at GIP-R (Table 3A) it was 102%.

In the case of `CCCCCCCCCCCCCCCC(=O)N[C@@H](CCC(=O)NCCCC[C@H](NC(=O)[C@H](CO)NC(=O)[C@@H]1CCCN1C(=O)[C@@H]1CCCN1C(=O)[C@@H]1CCCN1C(=O)[C@H](C)NC(=O)CNC(=O)[C@H](CO)NC(=O)[C@H](CO)NC(=O)[C@@H]1CCCN1C(=O)CNC(=O)CNC(=O)[C@H](C)NC(=O)[C@H](CC(C)C)NC(=O)[C@H](CC(C)C)NC(=O)[C@H](Cc1c[nH]c2ccccc12)NC(=O)[C@H](CC(N)=O)NC(=O)[C@@H](NC(=O)[C@H](Cc1ccccc1)NC(=O)[C@H](CCC(=O)O)NC(=O)C(C)(C)NC(=O)[C@H](C)NC(=O)[C@H](C)NC(=O)[C@H](CCC(N)=O)NC(=O)[C@H](CCCCN)NC(=O)[C@H](CC(=O)O)NC(=O)[C@H](CC(C)C)NC(=O)[C@H](Cc1ccc(O)cc1)NC(=O)[C@@H](NC(=O)[C@H](CO)NC(=O)[C@H](Cc1ccc(O)cc1)NC(=O)[C@H](CC(=O)O)NC(=O)[C@H](CO)NC(=O)[C@@H](NC(=O)[C@H](Cc1ccccc1)NC(=O)[C@@H](NC(=O)CNC(=O)[C@H](CCC(=O)O)NC(=O)CSCC(=O)NCCN1C(=O)CC(N)C1=O)[C@@H](C)O)[C@@H](C)O)[C@@H](C)CC)C(C)C)C(N)=O)C(=O)O` (mixture of isomers) [Compound 67], the Emax at GLP-1R (Table 3) stood at 100%; on GLP-1R (Table 3A) it was 100%; on GIP-R (Table 3) it was 65%; at GIP-R (Table 3A), 65%. Also, the EC50 was in the range of 0.1 to 1 nM on GLP-1R (Table 3, read-out: EC50 GLP-1R/nM); 0.1 to 1 nM on GLP-1R (Table 3A, read-out: EC50 GLP-1R/nM); 1 to 10 nM at GIP-R (Table 3, read-out: EC50 GIP-R/nM); 1 to 10 nM at GIP-R (Table 3A, read-out: EC50 GIP-R/nM).

As for `CCCCCCCCCCCCCCCC(=O)N[C@@H](CCC(=O)NCCCC[C@H](NC(=O)[C@H](CO)NC(=O)[C@@H]1CCCN1C(=O)[C@@H]1CCCN1C(=O)[C@@H]1CCCN1C(=O)[C@H](C)NC(=O)CNC(=O)[C@H](CO)NC(=O)[C@H](CO)NC(=O)[C@@H]1CCCN1C(=O)CNC(=O)CNC(=O)[C@H](C)NC(=O)[C@H](CC(C)C)NC(=O)[C@H](CC(C)C)NC(=O)[C@H](Cc1c[nH]c2ccccc12)NC(=O)[C@H](CC(N)=O)NC(=O)[C@@H](NC(=O)[C@H](Cc1ccccc1)NC(=O)[C@H](CCC(=O)O)NC(=O)C(C)(C)NC(=O)[C@H](C)NC(=O)[C@H](C)NC(=O)[C@H](CCC(N)=O)NC(=O)[C@H](CCCCN)NC(=O)[C@H](CC(=O)O)NC(=O)[C@H](CC(C)C)NC(=O)[C@H](Cc1ccc(O)cc1)NC(=O)[C@@H](NC(=O)[C@H](CO)NC(=O)[C@H](Cc1ccc(O)cc1)NC(=O)[C@H](CC(=O)O)NC(=O)[C@H](CO)NC(=O)[C@@H](NC(=O)[C@H](Cc1ccccc1)NC(=O)[C@@H](NC(=O)CNC(=O)[C@H](CCC(=O)O)NC(=O)CSCC(=O)NCCN1C(=O)C[C@H](OC)C1=O)[C@@H](C)O)[C@@H](C)O)[C@@H](C)CC)C(C)C)C(N)=O)C(=O)O` [Compound 49], the EC50 on GLP-1R (EC50 GLP-1R/nM, Table 3) fell in the range of 0.1 to 1 nM; at GLP-1R (EC50 GLP-1R/nM, Table 3A), 0.1 to 1 nM; at GIP-R (EC50 GIP-R/nM, Table 3) it was 0.1 to 1 nM; at GIP-R (EC50 GIP-R/nM, Table 3A) it was 0.1 to 1 nM. The Emax is 101% at GLP-1R (Table 3), 101% on GLP-1R (Table 3A), 48% on GIP-R (Table 3) and 48% at GIP-R (Table 3A).

As to `CC[C@H](C)[C@H](NC(=O)[C@H](CO)NC(=O)[C@H](Cc1ccc(O)cc1)NC(=O)[C@H](CC(=O)O)NC(=O)[C@H](CO)NC(=O)[C@@H](NC(=O)[C@H](Cc1ccccc1)NC(=O)[C@@H](NC(=O)CNC(=O)[C@H](CCC(=O)O)NC(=O)CCCCCCCN1C(=O)CSC1=O)[C@@H](C)O)[C@@H](C)O)C(=O)N[C@@H](Cc1ccc(O)cc1)C(=O)N[C@@H](CC(C)C)C(=O)N[C@@H](CC(=O)O)C(=O)N[C@@H](CCCCN)C(=O)N[C@@H](CCC(N)=O)C(=O)N[C@@H](C)C(=O)N[C@@H](C)C(=O)NC(C)(C)C(=O)N[C@@H](CCC(=O)O)C(=O)N[C@@H](Cc1ccccc1)C(=O)N[C@H](C(=O)N[C@@H](CC(N)=O)C(=O)N[C@@H](Cc1c[nH]c2ccccc12)C(=O)N[C@@H](CC(C)C)C(=O)N[C@@H](CC(C)C)C(=O)N[C@@H](C)C(=O)NCC(=O)NCC(=O)N1CCC[C@H]1C(=O)N[C@@H](CO)C(=O)N[C@@H](CO)C(=O)NCC(=O)N[C@@H](C)C(=O)N1CCC[C@H]1C(=O)N1CCC[C@H]1C(=O)N1CCC[C@H]1C(=O)N[C@@H](CO)C(=O)N[C@@H](CCCCN)C(N)=O)C(C)C` [Compound 175], the EC50 lay within 10 to 100 nM on GLP-1R (EC50 GLP-1R/nM, Table 3); 10 to 100 nM on GLP-1R (EC50 GLP-1R/nM, Table 3A); 10 to 100 nM on GIP-R (EC50 GIP-R/nM, Table 3); 10 to 100 nM at GIP-R (EC50 GIP-R/nM, Table 3A). Further, the Emax at GLP-1R (Table 3) is 87 to 94%; on GLP-1R (Table 3A), 87 to 94%; on GIP-R (Table 3), 38%; on GIP-R (Table 3A), 38%.

With `CC[C@H](C)[C@H](NC(=O)[C@H](CO)NC(=O)[C@H](Cc1ccc(O)cc1)NC(=O)[C@H](CC(=O)O)NC(=O)[C@H](CO)NC(=O)[C@@H](NC(=O)[C@H](Cc1ccccc1)NC(=O)[C@@H](NC(=O)CNC(=O)[C@H](CCC(=O)O)NC(=O)CSCC(=O)NCCN1C(=O)CCc2cccnc21)[C@@H](C)O)[C@@H](C)O)C(=O)N[C@@H](Cc1ccc(O)cc1)C(=O)N[C@@H](CC(C)C)C(=O)N[C@@H](CC(=O)O)C(=O)N[C@@H](CCCCN)C(=O)N[C@@H](CCC(N)=O)C(=O)N[C@@H](C)C(=O)N[C@@H](C)C(=O)NC(C)(C)C(=O)N[C@@H](CCC(=O)O)C(=O)N[C@@H](Cc1ccccc1)C(=O)N[C@H](C(=O)N[C@@H](CC(N)=O)C(=O)N[C@@H](Cc1c[nH]c2ccccc12)C(=O)N[C@@H](CC(C)C)C(=O)N[C@@H](CC(C)C)C(=O)N[C@@H](C)C(=O)NCC(=O)NCC(=O)N1CCC[C@H]1C(=O)N[C@@H](CO)C(=O)N[C@@H](CO)C(=O)NCC(=O)N[C@@H](C)C(=O)N1CCC[C@H]1C(=O)N1CCC[C@H]1C(=O)N1CCC[C@H]1C(=O)N[C@@H](CO)C(=O)N[C@@H](CCCCN)C(N)=O)C(C)C` [Compound 106], the EC50 at GLP-1R (EC50 GLP-1R/nM, Table 3) lay within 10 to 100 nM; on GLP-1R (EC50 GLP-1R/nM, Table 3A) it was 10 to 100 nM; at GIP-R (EC50 GIP-R/nM, Table 3) it was 10 to 100 nM; at GIP-R (EC50 GIP-R/nM, Table 3A), 10 to 100 nM. The Emax came out at 95% at GLP-1R (Table 3), 95% at GLP-1R (Table 3A), 37% on GIP-R (Table 3) and 37% on GIP-R (Table 3A).

Consider `CCCCCCCCCCCCCCCC(=O)N[C@@H](CCC(=O)NCCCC[C@H](NC(=O)[C@H](CO)NC(=O)[C@@H]1CCCN1C(=O)[C@@H]1CCCN1C(=O)[C@@H]1CCCN1C(=O)[C@H](C)NC(=O)CNC(=O)[C@H](CO)NC(=O)[C@H](CO)NC(=O)[C@@H]1CCCN1C(=O)CNC(=O)CNC(=O)[C@H](C)NC(=O)[C@H](CC(C)C)NC(=O)[C@H](CC(C)C)NC(=O)[C@H](Cc1c[nH]c2ccccc12)NC(=O)[C@H](CC(N)=O)NC(=O)[C@@H](NC(=O)[C@H](Cc1ccccc1)NC(=O)[C@H](CCC(=O)O)NC(=O)C(C)(C)NC(=O)[C@H](C)NC(=O)[C@H](C)NC(=O)[C@H](CCC(N)=O)NC(=O)[C@H](CCCCN)NC(=O)[C@H](CC(=O)O)NC(=O)[C@H](CC(C)C)NC(=O)[C@H](Cc1ccc(O)cc1)NC(=O)[C@@H](NC(=O)[C@H](CO)NC(=O)[C@H](Cc1ccc(O)cc1)NC(=O)[C@H](CC(=O)O)NC(=O)[C@H](CO)NC(=O)[C@@H](NC(=O)[C@H](Cc1ccccc1)NC(=O)[C@@H](NC(=O)CNC(=O)[C@H](CCC(=O)O)NC(=O)CSCC(=O)NCCN1C(=O)c2ccc(C)cc2C1=O)[C@@H](C)O)[C@@H](C)O)[C@@H](C)CC)C(C)C)C(N)=O)C(=O)O` [Compound 247], for which the EC50 on GLP-1R (EC50 GLP-1R/nM, Table 3A) is 0.1 to 1 nM; on GIP-R (EC50 GIP-R/nM, Table 3A), less than 0.1 nM. The Emax at GLP-1R (Table 3A) amounted to 102%; at GIP-R (Table 3A) it was 110%.

The term Emax denotes the maximal effect, on the per cent scale that the assay sets.
